Reference: US4293695A, “Furonaphthyridine compounds” (Daiichi Seiyaku Co., Ltd., priority 1978, dated 1981)
Converted amounts (≈) assume the structure as drawn.

Columns and labels:
E. coli NIHJ = assay: MIC, dilution method on plate culture (heart infusion agar); type: cell-based; details: Escherichia coli, 10^6/ml bacteria, 37° C., 18 hours, read-out: Minimum Inhibitory Concentration (MIC)
Experimental: (§1) Thus, these compounds are very useful anti-bacterial agents. The anti-bacterial activity (in vitro) and the acute toxicity (LD50) of the compounds of this invention are shown in the following Table in comparison with known oxolinic acid.
(§2) *Determined by the standard method of Japan Society of Chemotherapy:
(§3) dilution method on plate culture (heart infusion agar culture), 10^6
(§4) /ml of bacteria were seeded and incubated at 37° C. for 18 hours.

Ent. cloacae 12001 = assay: as above; type: cell-based; details: Enterobacter cloacae, 10^6/ml bacteria, 37° C., 18 hours, read-out: Minimum Inhibitory Concentration (MIC)
Experimental: as §1, §2, §3, §4

K. pneumoniae, Type 1 = assay: as above; type: cell-based; details: Klebsiella pneumoniae, TYPE1, 10^6/ml bacteria, 37° C., 18 hours, read-out: Minimum Inhibitory Concentration (MIC)
Experimental: as §1, §2, §3, §4

Pr. mirabilis = assay: as above; type: cell-based; details: Proteus mirabilis, 10^6/ml bacteria, 37° C., 18 hours, read-out: Minimum Inhibitory Concentration (MIC)
Experimental: as §1, §2, §3, §4

Pr. vulgaris = assay: as above; type: cell-based; details: Proteus vulgaris, 10^6/ml bacteria, 37° C., 18 hours, read-out: Minimum Inhibitory Concentration (MIC)
Experimental: as §1, §2, §3, §4

Ps. aeruginosa 2063 = assay: as above; type: cell-based; details: Pseudomonas aeruginosa, 10^6/ml bacteria, 37° C., 18 hours, read-out: Minimum Inhibitory Concentration (MIC)
Experimental: as §1, §2, §3, §4

S. aureus = assay: as above; type: cell-based; details: Staphylococcus aureus, 10^6/ml bacteria, 37° C., 18 hours, read-out: Minimum Inhibitory Concentration (MIC)
Experimental: as §1, §2, §3, §4

Ser. marcescens 13014 = assay: as above; type: cell-based; details: Serratia marcescens, 10^6/ml bacteria, 37° C., 18 hours, read-out: Minimum Inhibitory Concentration (MIC)
Experimental: as §1, §2, §3, §4

acute toxicity (LD50) = details: mouse, in vivo, iv; mice i.v.
Excerpt: as §1

| Structure (SMILES) | MIC (E. coli NIHJ) [µg/mL] | MIC (Ent. cloacae 12001) [µg/mL] | MIC (K. pneumoniae, Type 1) [µg/mL] | MIC (Pr. mirabilis) [µg/mL] | MIC (Pr. vulgaris) [µg/mL] | MIC (Ps. aeruginosa 2063) [µg/mL] | MIC (S. aureus) [µg/mL] | MIC (Ser. marcescens 13014) [µg/mL] | LD50 (acute toxicity (LD50)) [mg/kg] |
| --- | --- | --- | --- | --- | --- | --- | --- | --- | --- |
| CCn1cc(C(=O)O)c(=O)c2cc3c(nc21)CCO3 [Compound Ib, 5-ethyl-8-oxo-2,3,5,8-tetrahydrofuro[3,2-b]-1,8-naphthyridine-7-carboxylicacid] | ≤ 0.2 | ≤ 0.2 | 0.8 (≈ 3.07 µM) | ≤ 0.2 | ≤ 0.2 | 6.3 (≈ 24.2 µM) | 3.1 (≈ 11.9 µM) | ≤ 0.2 | 376 |
| CCn1cc(C(=O)O)c(=O)c2cc3c(cc21)OCO3 [Oxolinic Acid, 5-ethyl-5,8-dihydro-8-oxo-1,3-dioxolo[4,5-g]quinoline-7-carboxylic acid, reference compound] | ≤ 0.2 | 0.8 (≈ 3.06 µM) | 3.1 (≈ 11.9 µM) | – | – | 25 (≈ 95.7 µM) | 3.1 (≈ 11.9 µM) | 0.8 (≈ 3.06 µM) | – |
| CCn1cc(C(=O)O)c(=O)c2cc3occc3nc21 [Compound Ia, 5,8-dihydro-5-ethyl-8-oxofuro[3,2-b]-1,8-naphthyridine-7-carboxylic acid] | ≤ 0.2 | 0.4 (≈ 1.55 µM) | 1.6 (≈ 6.2 µM) | ≤ 0.2 | ≤ 0.2 | 3.1 (≈ 12 µM) | 3.1 (≈ 12 µM) | 0.4 (≈ 1.55 µM) | 221 |
